pEC50: −log10 of the molar value.
Biological target: human GPR40 receptor (Homo sapiens, UniProt O14842)
Assay: Assay I: IP1 accumulation (IPOne HTRF) in 1321N1 cells stably expressing human GPR40
Type: cell-based
Conditions: 1321N1 cells expressing human GPR40, stimulation 1 hour at 37° C., 10% CO2, final LiCl 50 mM
Method: IP1 accumulation measurements using the IPOne assay system—1321N1 cells stably expressing human GPR40 receptor (Euroscreen, Belgium) are seeded 24 h before the assay in black clear-bottom collagen-coated 384-well plates in culture medium containing 10% FCS, 1% Na-Pyruvate and 400 μg/mL G418. IP1 is assayed according to the Manufacturers description (Cisbio Bioassays, France). In brief, the assay is started by substitution of the culture medium by stimulation buffer (Hepes 10 mM, CaCl2 1 mM, MgCl2 0.5 mM, KCl 4.2 mM, NaCl 146 mM and glucose 5.5 mM, pH 7.4) without LiCl. Cells are stimulated for 1 hour at 37° C., 10% CO2 by addition of the compounds that are diluted in stimulation buffer containing LiCl yielding a final LiCl concentration of 50 mM. Assays are stopped by adding HTRF-conjugates (IP1-d2 and Anti-IP1 cryptate Tb) and lysis buffer, provided by the manufacturer. After an incubation time of 1 hour at room temperature plates are measured using an EnVision™, Perkin Elmer. The obtained fluorescence ratios at 665/615 nM are then used to calculate the pEC50 values using GraphPad Prism 5 (Graphpad Software Inc, USA) by interpolation using an IP1 reference curve and subsequent sigmoidal curve fitting allowing for a variable hill slope.

human GPR40 receptor, sequence (O14842 whole entry): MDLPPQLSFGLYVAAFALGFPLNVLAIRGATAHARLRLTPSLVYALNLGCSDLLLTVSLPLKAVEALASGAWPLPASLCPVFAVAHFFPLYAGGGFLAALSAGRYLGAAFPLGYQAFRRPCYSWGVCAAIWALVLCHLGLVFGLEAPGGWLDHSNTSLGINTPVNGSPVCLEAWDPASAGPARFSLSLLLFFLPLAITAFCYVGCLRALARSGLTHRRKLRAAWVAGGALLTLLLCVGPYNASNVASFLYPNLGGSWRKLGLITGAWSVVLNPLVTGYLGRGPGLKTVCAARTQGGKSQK

Cc1cc(OCc2ccnn2C)cc(C)c1-c1ccc(F)c2c1CC[C@H]2Oc1ccc2c(c1)OC[C@H]2CC(=O)O [Example 151, 2-((S)-6-((R)-4-(2,6-dimethyl-4-((1-methyl-1H-pyrazol-5-yl)methoxy)phenyl)-7-fluoro-2,3-dihydro-1H-inden-1-yloxy)-2,3-dihydrobenzofuran-3-yl)acetic acid]
pEC50: 8.52

Cc1cc(-c2cnn(C)c2)cc(C)c1-c1ccc(F)c2c1CC[C@H]2Oc1ccc2c(c1)OC[C@H]2CC(=O)O [Example 19, 2-((S)-6-((R)-4-(2,6-Dimethyl-4-(1-methyl-1H-pyrazol-4-yl)phenyl)-7-fluoro-2,3-dihydro-1H-inden-1-yloxy)-2,3-dihydrobenzofuran-3-yl)acetic acid]
pEC50: 8.52

Cc1cc(OCCNC(=O)OC(C)(C)C)cc(C)c1-c1ccc(F)c2c1CC[C@H]2Oc1ccc2c(c1)OC[C@H]2CC(=O)O [Example 65, 2-((S)-6-((R)-4-(4-(2-(tert-Butoxycarbonylamino)ethoxy)-2,6-dimethylphenyl)-7-fluoro-2,3-dihydro-1H-inden-1-yloxy)-2,3-dihydrobenzofuran-3-yl)acetic acid]
pEC50: 7.47

Cc1cc(-c2ccnn2C)cc(C)c1-c1ccc(F)c2c1CC[C@H]2Oc1ccc2c(c1)OC[C@H]2CC(=O)O [Example 20, 2-((S)-6-((R)-4-(2,6-Dimethyl-4-(1-methyl-1H-pyrazol-5-yl)phenyl)-7-fluoro-2,3-dihydro-1H-inden-1-yloxy)-2,3-dihydrobenzofuran-3-yl)acetic acid]
pEC50: 8.05

Cc1cc(-c2cncnc2)cc(C)c1-c1ccc(F)c2c1CC[C@H]2Oc1ccc2c(c1)OC[C@H]2CC(=O)O [Example 17, 2-((S)-6-((R)-4-(2,6-Dimethyl-4-(pyrimidin-5-yl)phenyl)-7-fluoro-2,3-dihydro-1H-inden-1-yloxy)-2,3-dihydrobenzofuran-3-yl)acetic acid]
pEC50: 8.40

Cc1cc(OC2CN(S(C)(=O)=O)C2)cc(C)c1-c1ccc(F)c2c1CC[C@H]2Oc1ccc2c(c1)OC[C@H]2CC(=O)O [Example 26, 2-((S)-6-((R)-4-(2,6-Dimethyl-4-(1-(methylsulfonyl)azetidin-3-yloxy)phenyl)-7-fluoro-2,3-dihydro-1H-inden-1-yloxy)-2,3-dihydrobenzofuran-3-yl)acetic acid]
pEC50: 7.77

Cc1cc(O[C@H]2CCN(S(C)(=O)=O)C2)cc(C)c1-c1ccc(F)c2c1CC[C@H]2Oc1ccc2c(c1)OC[C@H]2CC(=O)O [Example 34, 2-((S)-6-((R)-4-(2,6-Dimethyl-4-((S)-1-(methylsulfonyl)pyrrolidin-3-yloxy)phenyl)-7-fluoro-2,3-dihydro-1H-inden-1-yloxy)-2,3-dihydrobenzofuran-3-yl)acetic acid]
pEC50: 7.96

Cc1cc(OCC(C)(C)O)cc(C)c1-c1ccc(F)c2c1CC[C@H]2Oc1ccc2c(c1)OC[C@H]2CC(=O)O [Example 10, 2-((S)-6-((R)-7-Fluoro-4-(4-(2-hydroxy-2-methylpropoxy)-2,6-dimethylphenyl)-2,3-dihydro-1H-inden-1-yloxy)-2,3-dihydrobenzofuran-3-yl)acetic acid]
pEC50: 8.05

Cc1cc(OCC2CCN(S(C)(=O)=O)CC2)cc(C)c1-c1ccc(F)c2c1CC[C@H]2Oc1ccc2c(c1)OC[C@H]2CC(=O)O [Example 35, 2-((S)-6-((R)-4-(2,6-Dimethyl-4-((1-(methylsulfonyl)piperidin-4-yl)methoxy)phenyl)-7-fluoro-2,3-dihydro-1H-inden-1-yloxy)-2,3-dihydrobenzofuran-3-yl)acetic acid]
pEC50: 7.24

Cc1cc(OC2CCC(O)C2)cc(C)c1-c1ccc(F)c2c1CC[C@H]2Oc1ccc2c(c1)OC[C@H]2CC(=O)O (stereo partly drawn) [Example 11, 2-((3S)-6-((1R)-7-Fluoro-4-(4-(3-hydroxycyclopentyloxy)-2,6-dimethylphenyl)-2,3-dihydro-1H-inden-1-yloxy)-2,3-dihydrobenzofuran-3-yl)acetic acid]
pEC50: 8.30
